# Measurements: ChEMBL document CHEMBL5365427, “Discovery and Structural Optimization of Covalent ZAP-70 Kinase Inhibitors against Psoriasis” (J Med Chem, 2023)
# Activity calls are given as the source filed them. The rule behind the calls is not given here.
# Columns and labels:
# [1] = tested on: Mus musculus; assay: Anti-inflammatory activity in imiquimod-induced BALB/c mouse psoriasis model assessed as decrease in splenomegaly at TOP administration, 2 % applied for 7 days; assay type: functional, organism-based; conditions: time 7.0 day
# [2] = target: Tyrosine-protein kinase receptor UFO (Homo sapiens) (UniProt P30530); assay: Inhibition of AXL (unknown origin) at 1 uM relative to control
# Tyrosine-protein kinase receptor UFO (Homo sapiens), sequence (P30530 whole entry): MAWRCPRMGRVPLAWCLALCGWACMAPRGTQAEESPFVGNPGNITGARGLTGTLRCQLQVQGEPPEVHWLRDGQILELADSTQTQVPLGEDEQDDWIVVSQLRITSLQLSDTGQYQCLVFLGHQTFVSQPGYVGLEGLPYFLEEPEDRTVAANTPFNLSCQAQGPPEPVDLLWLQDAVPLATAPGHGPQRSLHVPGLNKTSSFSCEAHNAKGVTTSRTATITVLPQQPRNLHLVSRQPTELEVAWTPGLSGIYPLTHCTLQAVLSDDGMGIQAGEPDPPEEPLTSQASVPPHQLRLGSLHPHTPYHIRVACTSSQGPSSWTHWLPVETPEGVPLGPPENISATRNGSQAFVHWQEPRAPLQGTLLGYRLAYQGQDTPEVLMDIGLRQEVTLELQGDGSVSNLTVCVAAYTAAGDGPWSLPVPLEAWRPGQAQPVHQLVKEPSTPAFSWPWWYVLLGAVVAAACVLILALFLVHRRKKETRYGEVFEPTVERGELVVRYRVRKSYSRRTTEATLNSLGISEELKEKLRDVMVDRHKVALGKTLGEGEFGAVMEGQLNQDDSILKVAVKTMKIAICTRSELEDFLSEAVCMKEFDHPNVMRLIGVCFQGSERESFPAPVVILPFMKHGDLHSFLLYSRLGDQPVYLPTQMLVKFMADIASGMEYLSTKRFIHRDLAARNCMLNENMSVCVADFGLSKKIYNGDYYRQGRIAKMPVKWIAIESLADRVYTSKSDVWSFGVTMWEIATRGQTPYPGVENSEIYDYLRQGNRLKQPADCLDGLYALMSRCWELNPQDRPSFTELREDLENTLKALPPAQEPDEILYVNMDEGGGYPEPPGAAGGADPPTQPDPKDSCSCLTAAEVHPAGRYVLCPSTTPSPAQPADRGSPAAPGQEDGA
# [3] = target: T1, Bone morphogenetic protein receptor type-2 (Homo sapiens) (UniProt Q13873); assay: Inhibition of BMPR2 (unknown origin) at 1 uM relative to control
# T1 sequence (whole entry): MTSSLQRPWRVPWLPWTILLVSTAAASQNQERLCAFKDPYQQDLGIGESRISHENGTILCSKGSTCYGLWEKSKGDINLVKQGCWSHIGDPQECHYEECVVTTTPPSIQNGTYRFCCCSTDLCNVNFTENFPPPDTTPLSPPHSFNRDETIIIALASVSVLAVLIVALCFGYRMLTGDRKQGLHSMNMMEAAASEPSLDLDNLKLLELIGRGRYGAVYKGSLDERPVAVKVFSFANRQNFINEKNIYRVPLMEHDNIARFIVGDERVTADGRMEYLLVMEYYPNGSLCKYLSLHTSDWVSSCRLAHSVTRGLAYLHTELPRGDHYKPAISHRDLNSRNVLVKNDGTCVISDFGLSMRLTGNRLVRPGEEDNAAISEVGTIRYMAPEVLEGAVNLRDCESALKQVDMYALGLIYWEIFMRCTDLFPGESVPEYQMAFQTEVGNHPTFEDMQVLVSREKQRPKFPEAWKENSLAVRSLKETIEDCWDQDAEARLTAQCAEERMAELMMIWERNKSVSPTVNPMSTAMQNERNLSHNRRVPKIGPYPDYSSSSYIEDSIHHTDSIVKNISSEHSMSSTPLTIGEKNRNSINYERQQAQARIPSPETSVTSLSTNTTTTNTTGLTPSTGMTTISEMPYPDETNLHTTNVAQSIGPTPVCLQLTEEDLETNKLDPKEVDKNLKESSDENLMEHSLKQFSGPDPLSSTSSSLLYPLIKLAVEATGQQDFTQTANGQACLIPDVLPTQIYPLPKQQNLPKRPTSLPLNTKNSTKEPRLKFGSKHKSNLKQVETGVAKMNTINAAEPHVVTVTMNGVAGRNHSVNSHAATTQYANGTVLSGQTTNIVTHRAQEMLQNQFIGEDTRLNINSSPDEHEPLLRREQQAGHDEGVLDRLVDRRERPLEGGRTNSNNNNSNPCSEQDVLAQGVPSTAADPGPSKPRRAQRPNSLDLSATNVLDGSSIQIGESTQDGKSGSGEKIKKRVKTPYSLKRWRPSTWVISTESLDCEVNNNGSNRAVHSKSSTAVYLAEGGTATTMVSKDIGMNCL
# [4] = tested on: Splenocyte; assay: Immunosuppressive activity in BALB/c mouse Splenocyte assessed as reduction in frequency of CD25 positive CD4 positive T cells at 100 to 400 nM incubated for 48 hrs by flow cytometry analysis; assay type: functional, cell-based; conditions: dose 100-400 nM
# [5] = tested on: Mus musculus; assay: Anti-inflammatory activity in imiquimod-induced BALB/c mouse psoriasis model assessed as reduction in skin inflammation at TOP administration, 2 % applied for 7 days; assay type: functional, organism-based; conditions: time 7.0 day
# [6] = tested on: Splenocyte; assay: Immunosuppressive activity in anti-CD3/CD28 stimulated BALB/c mouse Splenocyte assessed as reduction in IFN-gamma cytokine level incubated for 48 hrs by ELISA assay; assay type: functional, cell-based
# [7] = tested on: Splenocyte; assay: Immunosuppressive activity in BALB/c mouse Splenocyte assessed as inhibition of concanavalin A induced T-cell proliferation incubated for 48 hrs by [3H]-thymidine incorporation based beta scintillation counter analysis; assay type: functional
# [8] = target: T2, Tyrosine-protein kinase ZAP-70 (Homo sapiens, UniProt P43403); assay: Inhibition of ZAP-70 (unknown origin) using ULight-TK peptide as substrate incubated for 120 mins in presence of ATP by Lance Ultra Kinase assay
# T2 sequence (P43403 whole entry): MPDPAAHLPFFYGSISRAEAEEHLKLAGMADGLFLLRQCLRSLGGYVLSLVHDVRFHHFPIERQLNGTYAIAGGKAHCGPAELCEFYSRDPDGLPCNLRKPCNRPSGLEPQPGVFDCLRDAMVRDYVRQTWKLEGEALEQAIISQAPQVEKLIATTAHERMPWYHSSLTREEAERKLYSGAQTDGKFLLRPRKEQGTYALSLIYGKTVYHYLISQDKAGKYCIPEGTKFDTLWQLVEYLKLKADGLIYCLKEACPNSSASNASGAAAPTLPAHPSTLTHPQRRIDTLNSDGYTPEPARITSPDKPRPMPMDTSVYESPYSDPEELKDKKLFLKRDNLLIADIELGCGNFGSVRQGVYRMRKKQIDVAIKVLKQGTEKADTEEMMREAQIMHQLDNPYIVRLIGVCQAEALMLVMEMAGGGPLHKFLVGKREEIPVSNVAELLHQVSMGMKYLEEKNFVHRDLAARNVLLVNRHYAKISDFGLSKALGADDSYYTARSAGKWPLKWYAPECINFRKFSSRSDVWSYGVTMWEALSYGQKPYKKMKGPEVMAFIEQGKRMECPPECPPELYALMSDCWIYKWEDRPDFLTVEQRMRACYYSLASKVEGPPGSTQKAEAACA
# [9] = tested on: Splenocyte; assay: Immunosuppressive activity in anti-CD3/CD28 stimulated BALB/c mouse Splenocyte assessed as reduction in IL-17A cytokine level incubated for 48 hrs by ELISA assay; assay type: functional, cell-based
smiles,measurement,setting,value
C=CC(=O)Nc1cc(CNc2nc(Nc3ccc(N4CCOCC4)c(OC)c3)c(C(N)=O)c3nccn23)ccc1Cl,Activity,[1],Active
same,inhibition,[2],> 90%
same,inhibition,[3],> 90%
same,Activity,[4],Active
same,Activity,[5],Active
same,Activity,[6],Dose-Dependent Effect
same,IC50,[7],64 nM
same,IC50,[8],14.6 nM
same,Activity,[9],Dose-Dependent Effect
